{
  "source": "patent US5834251A",
  "about": "“Methods of modifying carbohydrate moieties” (Alko Group Ltd., priority 1994, dated 1998)",
  "origin": "cited, not measured here",
  "molecular_target": "α-2,6 Sialyltransferase, EC 2.4.99.1, from rat liver (Rattus norvegicus, UniProt P13721)",
  "sequence (P13721 whole entry)": "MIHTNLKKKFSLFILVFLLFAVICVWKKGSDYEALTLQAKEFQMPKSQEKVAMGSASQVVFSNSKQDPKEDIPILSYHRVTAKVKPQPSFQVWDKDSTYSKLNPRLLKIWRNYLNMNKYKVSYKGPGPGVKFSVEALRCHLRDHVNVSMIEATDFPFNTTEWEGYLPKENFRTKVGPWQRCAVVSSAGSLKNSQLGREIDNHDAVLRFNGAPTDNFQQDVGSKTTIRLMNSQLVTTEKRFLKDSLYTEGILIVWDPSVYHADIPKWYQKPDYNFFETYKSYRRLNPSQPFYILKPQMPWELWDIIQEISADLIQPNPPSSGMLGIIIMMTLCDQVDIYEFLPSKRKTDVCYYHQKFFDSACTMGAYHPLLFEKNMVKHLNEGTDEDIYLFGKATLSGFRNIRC",
  "conditions": "read-out: Km for the sugar donor CMP-NeuAc; commercially available enzyme, such as that from rat liver",
  "data": [
    {"smiles": "CC(=O)NC1C(O)CC(OP(=O)(O)OCC2OC(n3ccc(N)nc3=O)C(O)C2O)(C(=O)O)OC1C(O)C(O)CO", "note": "(stereo not shown) [CMP-NeuAc, CMP-N-acetylneuraminic acid]", "values": [
      {"measurement": "Km", "value": 85, "unit": "µM"}
    ]}
  ]
}
